Assay results taken from US8802161B2, “Herbal composition and method of use for the treatment of cancer” (Florida Agricultural and Mechanical University, priority 2003, dated 2014).
Like-named read-outs stand apart in the source and are kept apart here.

What was measured:
[1] = system: MD-MB-231 human mammary carcinoma; experiment: efficacy against MD-MB-231 human mammary carcinoma xenograft; type: in vivo, Nu/Nu nude mice; conditions: in comparison to a vehicle control; formulation i.p./s.c., taxol i.v.
Procedure: Briefly, 6 week old female Nu/Nu mice were kept in an autoclaved micro isolator cage, maintained under pathogen free conditions. The tumors were ascetically surgically removed and transferred to a sterile Petri dish containing RPMI-1640. The homogenate was centrifuged, pelleted, resuspended into a concentration of 10 million cells/ml and injected into the mammary fat pad. The tumors were established by day 9 after implant and treatment began. The formula was prepared in sterile saline, and administered by i.p. injection for 3 days and s.c for the next 3 days, stopping at day 15. Taxol—(24 mg/kg in 2% PEG 300, 8% cremophor CL an 80% sterile Saline) was administered i.v. intermittently up to day 19 (days 10,13,16 and 19). […] The data represents tumor volume estimation (mm3) and expressed as the mean±S.E.M., n=4, for treatment groups, with n=1 for the control. […] The data represents weight gain (g) and are expressed as the mean±S.E.M., n=4, for treatment groups, with n=1 for the control.

LDH Type V = target: T1, LDH Type V (Oryctolagus cuniculus, UniProt P13491); experiment: LDH enzyme kinetic activity (NADH oxidation); type: biochemical, rabbit
T1 construct: were determined in pure isolated enzyme preparations; from tissue; host or cells: rabbit muscle
Source text: FIG. 2—The toxicity of selected plant extracts and 2′,3,4′5,7-pentahydroxyflavone were previously determined on N-2A neuroblastoma cells prior to examination of their effects on kinetic activity of pyruvate kinase (PK) and LDH (data not shown). Briefly, the effects of experimental compounds on PK and LDH Type V, resembling that inherent to human cancer (Koukourakis et al., Br J Cancer. 2003; 89:877-85; Augoff and Grabowski. Pol Merkuriusz Lek 2004; 17:644-7; Nagai et al., Int J Cancer. 198815; 10-6; Evans et al., Biol. Chem. 1985; 260:306-14) were determined in pure isolated enzyme preparations. Briefly, PK Type III (from rabbit muscle [2.7.1.40]) was prepared in distilled water+HEPES (pH 7.5), at a concentration of 0.5 enzyme U/ml. Pyruvic acid was converted to lactate in the presence of LDH (from rabbit muscle, type V-S [EC 1.1.1.27]), at a concentration of 10 U/ml in the presence of adenosine, 2′,5′-diphospahte (ADP) (1.5 mM), β-NADH (1 mM)±magnesium sulfate (MgSO4) (5 mM). Experimental compounds were incubated with the enzyme solution for 10 minutes and addition of 1 mM phosphoenolpyruvate (PEP) prepared in distilled water started the reaction. Negative controls were established for all compounds tested. Enzyme activities were determined by spectrophotometric analysis using a UV spectrometer at 340 nm, by monitoring the oxidation of NADH. Experimental compounds that blocked the reaction through the PK/LDH cascade, were re-analyzed for LDH inhibition. LDH activity was achieved using an enzyme reaction mixture, minus PK or PEP, and starting the reaction with pyruvate (1 mM) prepared in buffered distilled water. Validation studies for LDH kinetic activity were established by monitoring the oxidation of NADH over time and concentration with dual detection quantifying lactic acid using a lactate oxidase based colorimetric enzymatic assay (Procedure No 735, Sigma Diagnostics, St. Louis, Mo.). FIG. 2A describes the effect of tumoricidal plant extracts and 2′,3,4′5,7-pentahydroxyflavone on inhibition of PK/LDH activity. The data represent reaction rate of NADH oxidation in the presence of enzyme/cofactor reagents+PEP (1 mM)±varying concentration of experimental compounds at 30 Min. […] Significance of difference from the controls were determined by a one-way ANOVA, followed by a Tukey mean comparison post hoc test, [*] group P<0.001,*P<0.001. FIG. 2B describes the effect of tumoricidal plant-extracts and 2′,3,4′5,7-pentahydroxyflavone on inhibition of LDH activity. The data represent reaction rate of NADH oxidation in the presence of enzyme/cofactor reagents+pyruvate (1 mM)±single level of experimental compound over time. […] Significance of difference from the control was determined by a two-way ANOVA, [*] P<0.001.

complex IV = experiment: mitochondrial respiration / O2 utilization through complex IV in cancer cells; type: cell-based
[2] = system: mitochondrial complex's I and IV; experiment: Vmax and Km of mitochondrial complexes I and IV; type: biochemical
mitochondrial complex II = experiment: kinetic activity of mitochondrial complex II in cancer cells; type: biochemical
cancer cells = experiment: lethality to cancer cells; type: cell-based
N-2A neuroblastoma cells = experiment: in vitro screening of >700 nutraceuticals for tumoricidal properties (loss of cell viability, 24 H); type: cell-based; conditions: 24 H incubation at 37° C.
Procedure: In brief, we conducted a large scale screening of over 700 commonly sold nutritional supplements for relative tumoricidal properties in vitro.
The data represent loss of cell viability after 24 H incubation at 37° C., and represent the Mean±S.E.M. . . . n=4

[3] = system: neuroblastoma and MCF-7 cell line; experiment: toxicity of 3-BP versus 2,3-DMBQ: growth inhibition of MCF-7 cells and cell viability of N2A cells; type: cell-based; conditions: 24 hour incubation (FIGS. 3A,B)
Procedure: Briefly, cells were grown in Eagles MEM medium with […] and 10% calf serum and plated at 5′ 104 cells in 24 well plates. Appropriate positive (tamoxifen) and negative (no drug) controls were maintained simultaneously. After 24 hour incubation, cells were trypsined and collected by centrifugation, re-suspended in fresh media and cells were counted using trypan blue dye on a hemocytometer. […] FIG. 3B represents the evaluation of 3-BP versus 2,3-DMBQ on cell viability in N2A neuroblastoma cell line. Briefly, the experimental media consisted of DMEM (without phenol red), supplemented with 1.8% FBS (v/v), penicillin (100 U/ml)/streptomycin (0.1 mg/ml), 4 mM L-glutamine and 2 μM sodium pyruvate. Cells were plated at approximately 0.5×10^6 cells/ml in 96 well plates. A stock solution of each experimental compound was prepared in HBSS containing 5 mM HEPES, adjusted to a pH of 7.4. After 24 hours incubation at 37° C. and 5% CO2/atmosphere almar blue indicator dye was used to assess cell viability. Quantitative analysis of dye conversion was measured on a microplate fluorometer—Model 7620-version 5.02, Cambridge Technologies Inc. with settings fixed at [550/580], [excitation/emission], wavelengths. […]

CC(=O)O[C@H]1C(=O)[C@@]2(C)[C@H]([C@H](OC(=O)c3ccccc3)[C@]3(O)C[C@H](OC(=O)[C@H](O)[C@@H](NC(=O)c4ccccc4)c4ccccc4)C(C)=C1C3(C)C)[C@]1(OC(C)=O)CO[C@@H]1C[C@@H]2O [taxol®]
tumor growth and growth latency [1]: reduced tumor growth and growth latency

O=c1c(O)c(-c2ccc(O)cc2O)oc2cc(O)cc(O)c12 [2′,3,4′5,7-pentahydroxyflavone]
LDH inhibition (LDH enzyme kinetic profiles) (LDH Type V): inhibitor

Cc1cc2nc3c(=O)[nH]c(=O)nc-3n(C[C@H](O)[C@H](O)[C@H](O)CO)c2cc1C [vitamin B2, 7,8-dimethyl-10-ribityl-isoalloxazine]
rate of mitochondrial respiration or O2 utilization through complex IV (complex IV): drastically potentiates | Vmax and Km of mitochondrial complex's I and IV [2]: augmenting the Vmax and reduction of Km

COC1=C(OC)C(=O)C(C/C=C(\C)CC/C=C(\C)CC/C=C(\C)CC/C=C(\C)CC/C=C(\C)CC/C=C(\C)CC/C=C(\C)CC/C=C(\C)CC/C=C(\C)CCC=C(C)C)=C(C)C1=O [CoQ10, ubiquinone (50)]
rate of mitochondrial respiration or O2 utilization through complex IV (complex IV): did not control | rate of mitochondrial respiration or O2 utilization through complex IV (complex IV; listed as ubiquinone (50)): no positive effect | Vmax / kinetic activity of mitochondrial complex II (mitochondrial complex II): increase | Vmax / kinetic activity of mitochondrial complex II (mitochondrial complex II; listed as ubiquinone (50)): augmenting | lethality to cancer cells (cancer cells): not as lethal as expected

CC(C)=CCC[C@]1(C)C=Cc2c(O)c3c(c(CC=C(C)C)c2O1)O[C@]12C(=C[C@@H]4C[C@H]1C(C)(C)O[C@@]2(C/C=C(/C)C(=O)O)C4=O)C3=O [gambogic acid]
tumoricidal potency (loss of cell viability) (N-2A neuroblastoma cells): most potent tumoricidal

O=C(O[C@@H]1Cc2c(O)cc(O)cc2O[C@@H]1c1cc(O)c(O)c(O)c1)c1cc(O)c(O)c(O)c1 [epigallocatechin gallate]
LDH inhibition (LDH enzyme kinetic profiles) (LDH Type V): LDH inhibitors

C[C@H]1[C@H](C)CC[C@]2(C)CC[C@]3(C)C(=CC[C@@H]4[C@@]5(C)CC[C@@H](O)[C@](C)(C(=O)O)[C@@H]5CC[C@]43C)[C@H]12 [boswellic acid]
tumoricidal potency (loss of cell viability) (N-2A neuroblastoma cells): most potent tumoricidal

O=C(O)CC(O)(CC(=O)O)C(=O)O [citric acid]
LDH inhibition (LDH enzyme kinetic profiles) (LDH Type V): LDH inhibitors

COc1ccc(-c2cc(=O)c3c(O)cc(O[C@@H]4O[C@H](CO[C@@H]5O[C@@H](C)[C@H](O)[C@@H](O)[C@H]5O)[C@@H](O)[C@H](O)[C@H]4O)cc3o2)cc1O [diosmin]
tumoricidal potency (loss of cell viability) (N-2A neuroblastoma cells): most potent tumoricidal

O=c1c(O)c(-c2ccc(O)c(O)c2)oc2cc(O)cc(O)c12 [quercetin]
LDH inhibition (LDH enzyme kinetic profiles) (LDH Type V): LDH inhibitors

COC1=C(OC)C(=O)C(C)=CC1=O [DMBQ]
toxicity relative to bromopyruvate [3]: > 50 × | lethality to cancer cells (cancer cells): lethal

Cc1cc2nc3c(=O)[nH]c(=O)nc-3n(C[C@H](O)[C@H](O)[C@H](O)COP(=O)(O)OP(=O)(O)OC[C@H]3O[C@@H](n4cnc5c(N)ncnc54)[C@H](O)[C@@H]3O)c2cc1C [FAD, flavin adenine dinucleotide]
Vmax and Km of mitochondrial complex's I and IV [2]: augmenting the Vmax and reduction of Km

Cc1cc2nc3c(=O)[nH]c(=O)nc-3n(C[C@H](O)[C@H](O)[C@H](O)COP(=O)(O)O)c2cc1C [FMN, flavin mononucleotide]
Vmax and Km of mitochondrial complex's I and IV [2]: augmenting the Vmax and reduction of Km
